The results in this text go back to patent US11999758B2, “Inhibitors of the YAP/TAZ-TEAD interaction and their use in the treatment of cancer” (INVENTIVA, priority 2018, dated 2024).

Each structure is given as a SMILES string. pIC50: −log10 of the molar value. Structures can show the parent of a compound that is named as a salt.

The target of the test is T1, YAP-TEAD interaction (Homo sapiens, UniProt P28347).
T1 construct: expressed in transfected cells; host or cells: HEK293 GripTite 293 MSR (Invitrogen R795-07)
Briefly: Cell-based TEAD-GAL4 transactivation assay (luciferase reporter). Conditions: HEK293 cells transfected with TEAD1-Gal4, YAP mutant (S127A, S397A) and luciferase reporter, compounds 0.1 μM to 30 μM; for Emax: HEK293, 24 h, read-out: TEAD-GAL4 Transactivation activity Max Act; for pIC50: 24 h. In outline:
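HEK293 cells transiently transfected with Gal4-DBD–full-length human TEAD1, full-length YAP S127A/S397A (YAP/TEAD ratio 10) and a 5×GAL4-RE TK-luciferase reporter. Six hours later, compounds added semi-log from 0.1 to 30 μM (DMSO 0.5% control) for 24 h. Luciferase read; IC50 from 3-parameter fit.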
In general terms: In a reporter assay the amount or activity of a reporter protein is the signal.

T1 sequence (P28347 whole entry): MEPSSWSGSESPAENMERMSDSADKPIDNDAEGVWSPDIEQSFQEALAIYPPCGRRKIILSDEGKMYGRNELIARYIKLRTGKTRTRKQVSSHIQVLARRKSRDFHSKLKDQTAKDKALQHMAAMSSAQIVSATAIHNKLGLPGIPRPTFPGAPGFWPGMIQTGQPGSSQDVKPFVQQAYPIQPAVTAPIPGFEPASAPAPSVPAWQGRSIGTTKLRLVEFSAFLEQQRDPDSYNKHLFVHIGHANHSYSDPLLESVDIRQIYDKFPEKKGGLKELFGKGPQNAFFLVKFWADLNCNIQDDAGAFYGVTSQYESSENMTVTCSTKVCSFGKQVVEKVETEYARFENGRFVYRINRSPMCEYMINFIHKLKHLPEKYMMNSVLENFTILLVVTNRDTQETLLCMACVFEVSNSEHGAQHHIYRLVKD

For the compound `CN(/N=C/c1ccc2c(c1)COB2O)c1ncnc2c1[nH]c(=O)n2C1CC(O)C1` (centres unmarked) [Ex109, 6-[[(E)-(1-hydroxy-3H-2,1-benzoxaborol-5-yl)methyleneamino]-methyl-amino]-9-(3-hydroxycyclobutyl)-7H-purin-8-one hydrochloride], the Emax stood at 86% and the pIC50 is 5.78.

As to `CN(/N=C/c1ccc2c(c1)COB2O)c1ncnc2c1CCC(=O)N2` [Ex100, 4-[[(E)-(1-hydroxy-3H-2,1-benzoxaborol-5-yl)methyleneamino]-methyl-amino]-6,8-dihydro-5H-pyrido[2,3-d]pyrimidin-7-one], the Emax stood at 85% and the pIC50 was 5.85.

As for `CN1CCc2c1ncnc2N(C)/N=C/c1ccc2c(c1)COB2O` [Ex106, N-[(E)-(1-hydroxy-3H-2,1-benzoxaborol-5-yl)methyleneamino]-N,7-dimethyl-5,6-dihydropyrrolo[2,3-d]pyrimidin-4-amine], the Emax was 83% and the pIC50 is 5.97.

Consider `CCN(/N=C/c1ccc2c(c1)COB2O)c1ncnc2c1cnn2C` [Ex 41, N-ethyl-N-[(E)-(1-hydroxy-3H-2,1-benzoxaborol-5-yl)methyleneamino]-1-methyl-pyrazolo[3,4-d]pyrimidin-4-amine], for which the Emax was 83% and the negative-log IC50 (pIC50) was 6.24.

For the compound `CCN(/N=C/c1ccc2c(c1)COB2O)c1ncnc2ccsc12` [Ex 38, N-ethyl-N-[(E)-(1-hydroxy-3H-2,1-benzoxaborol-5-yl)methyleneamino]-thieno[3,2-d]pyrimidin-4-amine], the Emax was found to be 81% and the pIC50 was 6.29.

`CN(/N=C/c1ccc2c(c1)COB2O)c1ncnc2c1CCO2` [Ex101, N-[(E)-(1-hydroxy-3H-2,1-benzoxaborol-5-yl)methyleneamino]-N-methyl-5,6-dihydrofuro[2,3-d]pyrimidin-4-amine]: the Emax worked out at 94% and the pIC50 is 6.05.

As for `CCCNC(=O)c1csc2c(N(CC)/N=C/c3ccc4c(c3)COB4O)ncnc12` [Ex112, 4-[ethyl-[(E)-(1-hydroxy-3H-2,1-benzoxaborol-5-yl)methyleneamino]-amino]-N-propyl-thieno[3,2-d]pyrimidine-7-carboxamide], the Emax was determined as 79% and the pIC50 is 5.73.

With `COCCOc1ccc2c(c1)C(N(CC(C)C)/N=C/c1ccc(B(O)O)c(OC)c1)=NS2(=O)=O` [Ex 9, [4-[(E)-[isobutyl-[5-(2-methoxyethoxy)-1,1-dioxo-1,2-benzothiazol-3-yl]hydrazono]methyl]-2-methoxy-phenyl]boronic acid], the Emax is 98% and the pIC50 is 5.63.

As for `CCN(/N=C/c1ccc2c(c1)COB2O)c1nc(C)nc2ccsc12` [Ex 45, N-ethyl-N-[(E)-(1-hydroxy-3H-2,1-benzoxaborol-5-yl)methyleneamino]-2-methyl-thieno[3,2-d]pyrimidin-4-amine], the Emax stood at 63% and the pIC50 is 5.99.

Take `COc1cccc2c(N(CC(C)C)/N=C/c3ccc4c(c3)COB4O)ncnc12` [Ex 32, N-[(E)-(1-hydroxy-3H-2,1-benzoxaborol-5-yl)methyleneamino]-N-isobutyl-8-methoxy-quinazolin-4-amine]: the Emax was 86% and the pIC50 is 5.80.

For the compound `COc1cc(/C=N/N(CC(C)C)c2ncnc3cc(F)ccc23)ccc1B(O)O` [Ex 18, [4-[(E)-[(7-fluoroquinazolin-4-yl)-isobutyl-hydrazono]methyl]-2-methoxyphenyl] boronic acid], the Emax worked out at 80% and the pIC50 was 5.66.

For the compound `COc1cc(/C=N/N(CC(C)C)C2=NS(=O)(=O)c3ccccc32)cc2c1B(O)OC2` [Ex 48, N-[(E)-(1-hydroxy-7-methoxy-3H-2,1-benzoxaborol-5-yl)methyleneamino]-N-isobutyl-1,1-dioxo-1,2-benzothiazol-3-amine], the Emax amounted to 77%.

For the compound `Cc1csc2c(N(CCO)/N=C/c3ccc4c(c3)COB4O)ncnc12` [Ex97, 2-[[(E)-(1-hydroxy-3H-2,1-benzoxaborol-5-yl)methyleneamino]-(7-methylthieno[3,2-d]pyrimidin-4-yl)amino]ethanol], the Emax came to 79% and the pIC50 is 6.18.

With `CC(C)CN(/N=C/c1ccc(B(O)O)cc1)C1=NS(=O)(=O)c2ccccc21` [Ex 8, [4-[(E)-[(1,1-dioxo-1,2-benzothiazol-3-yl)-isobutyl-hydrazono]methyl]-phenyl] boronic acid], the Emax is 74%.

As to `CN(/N=C/c1ccc2c(c1)COB2O)C1=NS(=O)(=O)c2ccccc21` [Ex 26, N-[(E)-(1-hydroxy-3H-2,1-benzoxaborol-5-yl)methyleneamino]-N-methyl-1,1-dioxo-1,2-benzothiazol-3-amine], the Emax stood at 78% and the pIC50 is 5.47.

On to `CN(/N=C/c1ccc2c(c1)COB2O)c1ncnc2c(C3CC3)csc12` [Ex103, 7-cyclopropyl-N-[(E)-(1-hydroxy-3H-2,1-benzoxaborol-5-yl)methyleneamino]-N-methyl-thieno[3,2-d]pyrimidin-4-amine], for which the Emax came to 79% and the pIC50 is 6.15.

Take `CC1CCC(c2ccc3c(c2)COB3O)=NN1c1ncnc2ccsc12` (centres unmarked) [Ex121, 4-[6-(1-hydroxy-3H-2,1-benzoxaborol-5-yl)-3-methyl-4,5-dihydro-3H-pyridazin-2-yl]thieno[3,2-d]pyrimidine]: the Emax came to 80% and the pIC50 is 6.14.

Turning to `COCc1csc2c(N(C)/N=C/c3ccc4c(c3)COB4O)ncnc12` [Ex126, N-[(E)-(1-hydroxy-3H-2,1-benzoxaborol-5-yl)methyleneamino]-7-(methoxymethyl)-N-methyl-thieno[3,2-d]pyrimidin-4-amine], the Emax was 83% and the pIC50 was 6.15.

With `CN(/N=C/c1ccc2c(c1)COB2O)C1=NS(=O)(=O)C2=C1CCCC2` [Ex 51, N-[(E)-(1-hydroxy-3H-2,1-benzoxaborol-5-yl)methyleneamino]-N-methyl-1,1-dioxo-4,5,6,7-tetrahydro-1,2-benzothiazol-3-amine], the Emax worked out at 75% and the pIC50 was 5.07.

As to `COc1cc(C2=NN(c3ncnc4c3ccn4C)C(C)CC2)ccc1B(O)O` (centres unmarked) [Ex73, [2-methoxy-4-[3-methyl-2-(7-methylpyrrolo[2,3-d]pyrimidin-4-yl)-4,5-dihydro-3H-pyridazin-6-yl]phenyl]boronic acid], the Emax amounted to 88% and the pIC50 is 5.65.

For the compound `CC1OB(O)c2ccc(/C=N/N(C)C3=NS(=O)(=O)c4ccccc43)cc21` (centres unmarked) [Ex 50, N-[(E)-(1-hydroxy-3-methyl-3H-2,1-benzoxaborol-5-yl)methyleneamino]-N-methyl-1,1-dioxo-1,2-benzothiazol-3-amine], the Emax worked out at 81% and the pIC50 was 5.29.

Consider `COc1ccc2c(c1)S(=O)(=O)N=C2N(CC(C)C)/N=C/c1ccc2c(c1)COB2O` [Ex 30, N-[(E)-(1-hydroxy-3H-2,1-benzoxaborol-5-yl)methyleneamino]-N-isobutyl-6-methoxy-1,1-dioxo-1,2-benzothiazol-3-amine], for which the Emax amounted to 86% and the pIC50 was 5.42.

As for `COc1cc(C2=NN(c3ncnc4cc(F)ccc34)CC(C)O2)ccc1B(O)O` (centres unmarked) [Ex74, [4-[4-(7-fluoroquinazolin-4-yl)-6-methyl-5,6-dihydro-1,3,4-oxadiazin-2-yl]-2-methoxy-phenyl]boronic acid], the Emax was 83% and the pIC50 is 5.63.

For the compound `COc1cc(/C=N/N(CC(C)C)c2ncnc3c(C)csc23)ccc1B(O)O` [Ex67, [4-[(E)-[isobutyl-(7-methylthieno[3,2-d]pyrimidin-4-yl)hydrazono]methyl]-2-methoxy-phenyl]boronic acid], the Emax was determined as 89% and the pIC50 was 5.42.

Consider `CC1CCC(c2ccc3c(c2)COB3O)=NN1c1ncnc2c3c(sc12)CCCC3` (centres unmarked) [Ex122, 4-[6-(1-hydroxy-3H-2,1-benzoxaborol-5-yl)-3-methyl-4,5-dihydro-3H-pyridazin-2-yl]-6,7,8,9-tetrahydrobenzothiopheno[3,2-d]pyrimidine], for which the Emax is 94% and the pIC50 was 6.09.

Regarding `CCN(/N=C/c1ccc2c(c1)COB2O)c1ncnc2c(C(=O)NCCCCOC)csc12` [Ex116, 4-[ethyl-[(E)-(1-hydroxy-3H-2,1-benzoxaborol-5-yl)methyleneamino]-amino]-N-(4-methoxybutyl)thieno[3,2-d]pyrimidine-7-carboxamide], the Emax amounted to 86% and the pIC50 was 5.71.

`CCN(/N=C/c1ccc2c(c1)COB2O)c1ncnc2c3c(sc12)CCCC3` [Ex91, N-ethyl-N-[(E)-(1-hydroxy-3H-2,1-benzoxaborol-5-yl)methyleneamino]-6,7,8,9-tetrahydrobenzothiopheno[3,2-d]pyrimidin-4-amine]: the Emax was determined as 85% and the pIC50 was 6.19.

`COc1cc(/C=N/N(CC(C)C)C2=NS(=O)(=O)c3ccc(OCCCO)cc32)ccc1B(O)O` [Ex 12, [4-[(E)-[[5-(3-hydroxypropoxy)-1,1-dioxo-1,2-benzothiazol-3-yl]-isobutyl-hydrazono]methyl]-2-methoxy-phenyl]boronic acid]: the Emax is 98% and the pIC50 is 5.53.

Turning to `CCN(/N=C/c1ccc(B(O)O)c(OC)c1)c1ncnc2c(OC)cccc12` [Ex 21, [4-[(E)-[ethyl-(8-methoxyquinazolin-4-yl)hydrazono]methyl]-2-methoxy-phenyl]boronic acid], the Emax is 90% and the pIC50 was 5.75.

A word on the pIC50: it is the IC50 on a negative log10 scale, so that one unit is a factor of ten.
